The test system of data set [1] is accumulation of sorbitol in nervous tissues. As to the kind of experiment: Inhibiting activity of the accumulation of sorbitol in nervous tissues of streptozotocin-diabetic rats. The data set is classed as in vivo, SD male rats. To be noted: comparison compounds with linear alkyl group at 5-position; dose not stated.
The test system of data set [2] is rats suffering from diabetes. As to the kind of experiment: Inhibiting activity of the progress of cataract in diabetic rats (lens opacity score by slit lamp). Type of data set: in vivo. Conditions: 100 mg/kg body weight orally daily for 5 weeks; average lens score (0-4) of both eyes; control group 1.46 ± 0.12, normal rats 0. How it is done: Rats suffering from diabetes for the test were produced in the same manner as in Example 13.
From the day after the administration of streptozotocin, each of Compound Nos. 1-11 suspended in a 5 % aqueous solution of gum arabic was administered orally 100 mg/kg body weight daily for 5 weeks to the rats. As the control group, a 5 % aqueous solution of gum arabic having no rhodanine derivative was administered (5 mℓ/kg body weight) to the rats in the same manner as above.
After administering streptozotocin, lenses of the rats were observed by using a slit lump (commercially available from KOWA Co., Ltd. under a trade name "Kowa SL-2") every second or third day for 5 weeks, sufficiently keeping the lenses mydriasis with a mydriatic (commercially available from Santen Pharmaceutical Co., Ltd. under the trade name "MYDRIN-P".
The opaqueness of the lenses was estimated according to the following criteria. Score 0: There was no change in the lenses. […] Score 3: Opacity was observed over the whole of lens' surface and the fundus oculi was not seen as if projected through the lens. Score 4: The nucleus lentis became opaque.
Also, with respect to the normal rats administered with a 5 % aqueous solution of gum arabic, the opaqueness were estimated in the same manner as above.

The subject of data set [3] is rats suffering from diabetes. As to the kind of experiment: Improving activity of the nerve conduction velocity in diabetic rats (tail nerve, method of Miyoshi). Type of data set: in vivo. To be noted: 100 mg/kg body weight once daily for 2 weeks, control group 24.5 ± 1.2, normal rat 38.4 ± 2.2. How it is done: Rats suffering from diabetes for the test were prepared in the same manner as in Example 13.
From the day after the administration of streptozotocin, each of Compound Nos. 1-11 suspended in a 5 % aqueous solution of gum arabic was administrated to the rats in a dosage of 100 mg/kg body weight once daily for 2 weeks.
As the control groups, a 5 % aqueous solution of gum aratic having no rhodanine derivative was administered (5 mℓ/kg body weight) in the same manner as above to the rats.
Two weeks later, the conduction velocity of nerve of the rats was measured in accordance with the method of Miyoshi [Fukuoka Medical Jounal, 62(7), 588 to 603(1971)]. In this test, the nerves of the rats' tails were used as materials studied.
The rats were anesthetized with pentobarbital (30 to 45 mg/kg body weight, intraperitoneal administration), and then the conduction velocities of nerves were measured in a constant-temperature box having a temperature of 40°C.
The nerve of rat's tail was pricked with needle electrodes at a portion of about 1 cm from the anus (the first stimulation point) and at a portion of about 5 cm in a distal direction from the first stimulation point (the second stimulation point). Further, the segmental muscle of the rat's tail was pricked with a coaxial needle electrode at a portion of about 5 cm in a distol direction from the second stimulation point. The longitudinal nerve trunk of the rat's tail was stimulated at the first stimulation point and the second stimulation point to record action potentials of the provoked muscle.
The conduction velocity of nerve was calculated as follows: [formula]
Also, with respect to the normal rats administered with a 5 % aqueous solution of gum arabic, the conduction velocity of nerve was measured in the same manner as above.

For a further data set, the system named is male ddY mice. As to the kind of experiment: Acute toxicity in mice. The data set is classed as in vivo. To be noted: oral, up to a dose of 2,000 mg/kg body weight, observed for 2 weeks. The source says:
(§1) The acute toxicity in mice was examined by using the rhodanine derivatives of compound Nos. 1, 2, 5, 7 and 10.

The nature of a further data set: Acute toxicity in mice. Conditions: mouse, in vivo; oral, mice observed for 2 weeks; read-out: LD₅₀ (oral). Type of data set: in vivo.
Text: as §1

The subject of data set [4] is accumulation of galactitol in red blood cells. As to the kind of experiment: Inhibiting activity of the accumulation of galactitol in red blood cells of galactose-fed dogs. The data set is classed as in vivo, beagle dogs. Conditions: 10 mg/kg body weight orally once daily for 3 days; blood 10 hours after galactose 15 g/kg; control group 125 ± 10. The method, then:
Each of Compound Nos. 1-11 was administered orally in a dosage of 10 mg/kg body weight once daily for 3 days with a capsule (administration time: 9 a.m. to 9:30 a.m.) to a male or female beagle dogs (body weight: from 8 to 12 kg). As the control group, the dogs were administered with vacant capsules in the same manner as above. Dog foods containing galactose in an amount of 15 g/kg body weight were given to the dogs immediately after the final administration of the capsule. The dogs completely had eaten the dog foods for 5 to 10 minutes. The blood was collected from the cephalic vein of the dog using heparine sodium after 10 hours from the administration of galactose. The collected blood was centrifuged to give red blood cells. The obtained red blood cells were washed twice with a cold physiological saline solution and were hemolysed in distilled water having an equal volume to the red blood cells.
After removing protein from the obtained solution, the resulting solution was treated with ion exchange resins, "Dowex 50 W" and "Duolite A-4", desalted and lyophilized. After subjecting to the pre-treatment of galactitol with trimethyl silyl ether (TMS), the amount of galactitol accumulated in the red blood cells was measured by a gas chromatography.

The subject of data set [5] is accumulation of sorbitol in nervous tissues. As to the kind of experiment: Inhibiting activity of the accumulation of sorbitol in nervous tissues of streptozotocin-diabetic rats. Type of data set: in vivo, SD male rats. Conditions: single dose 48 h after streptozotocin, sciatic nerve sorbitol 5 hours after administration, mean ± spread. How it is done: After preliminary breeding SD male rats (6 weeks old) in this laboratory for 5 days, streptozotocin (made by Sigma Chemical Company) was administered intravenously (45 mg/kg body weight) to the rats to destroy β cells of Langerhans' islets in pancreas. Thus, rats suffering from diabetes were obtained.
After 48 hours from the administration of streptozotocin, the rhodanine derivative suspended in a 5 % aqueous solution of gum arabic was administered orally (100 mg/kg body weight or 25 mg/kg body weight) to the rats suffering from diabetes.
On the other hand, a 5 % aqueous solution of gum arabic having no rhodanine derivative was administered orally (5 mℓ/kg body weight) to the rats (a control group).
After 5 hours from the administration, the rats were sacrificed by the decapitation and bled to death. Immidiately, the sciatic nervous tissues of the rats were excised and frozen with dry ice. The excised sciatic nervous tissues were stored at -70°C until the sorbitol amount was measured.
After the wet weights of nervous tissues were measured, the tissues were homogenized in 1.0 mℓ of distilled water by using a homogenizer, to which 0.2 mℓ of a 4.5 % aqueous solution of barium hydroxide and 0.2 mℓ of a 5 % aqueous solution of zinc sulfate were added. The mixture was centrifuged for 10 minutes at 3,000 rpm to remove a precipitate. Ion exchange resins "Dowex 50 W" (Dow Chemical Co.) and "Duolite A-4" (Sumitomo Chemical Company, Limited.) purchased were added in small amounts to the obtained supernatant to desalt, which was recentrifuged to obtain a supernatant. To 0.5 mℓ of the extract of sorbitol were added 1.0 mt of a 50 mM glycine-sodium hydroxide buffer solution (pH 9.4) containing 0.2 mM nicotinamide adenine dinucleotide (NAD) and 50 µℓ of an enzyme solution containing 83 µg of sorbitol dehydrogenase (commercially available from BOEHRINGER MANNHEIM CORPORATION), and the mixture was reacted at room temperature for one hour. The amount of NADH formed by oxidation of sorbitol was measured by using a spectrofluorimeter and a sorbitol concentration in the extracts was measured. From the obtained results, sorbitol concentrations in nervous tissues (n mole/mg wet weight) were calculated.
A difference between the sorbitol content of the normal rat (0.12 ± 0.01 n mole/mg) and that of the rat suffering from diabetes (0.81 ± 0.06 n mole/mg) was defined as an amount of sorbitol accumulated in the tissues due to diabetes (hereinafter referred to as "sorbitol amount due to diabetes"). Also, a difference between the sorbitol content of the rat suffering from diabetes (0.81 ± 0.06 n moles/mg) and the sorbitol content of the rat suffering from diabetes which was administered the rhodanine derivative was defined as a lowering of the amount of sorbitol due to administration of the rhodanine derivative (hereinafter referred to as "lowering of sorbitol").
A lowering percentage (%) was defined as a percentage of the lowering of sorbitol to the sorbitol amount due to diabetes. The lowering percentages of the rhodanine derivatives (Compound Nos. 1-11) are shown in Table 3 (administered 100 mg/kg body weight) and Table 4 (administered 25 mg/kg body weight) with the number of rats suffering from diabetes.

Molecules are shown by their SMILES. Marks after values point to notes of the source that are not given here.

Take `CCCCC1SC(=S)N(CC(=O)O)C1=O` (stereo not drawn) [3-carboxymethyl-5-n-butylrhodanine]: the “inhibition of the accumulation of sorbitol” value (“inhibition” below) in data set [1] was “hardly inhibited the accumulation of sorbitol”.

As for `CCCCCCCC1SC(=S)N(CC(=O)O)C1=O` (stereo not drawn) [3-carboxymethyl-5-n-heptylrhodanine], in data set [1], the “inhibition” value was “hardly inhibited the accumulation of sorbitol”.

`CCCC1SC(=S)N(CC(=O)O)C1=O` (stereo not drawn) [3-carboxymethyl-5-n-propylrhodanine]: in data set [1], the “inhibition” value is listed as “hardly inhibited the accumulation of sorbitol”.

In turn, `CCCC(CC)C1SC(=S)N(CC(=O)O)C1=O` (stereo not drawn) [Compound No. 5, 3-Carboxymethyl-5-(1-ethylbutyl)rhodanine] registered an Opaqueness in data set [2] of 0.92 ± 0.10. For the same compound, the “Conduction velocity of nerve (m/sec)” value in data set [3] was 32.4 ± 2.8 m/sec. Further, the dead mice entry in the data set on male ddY mice is “no dead mice were observed”. In addition, the LD50 at 336 h in the data set “Acute toxicity in mice” was over 2000 mg/kg. For the same compound, the “Amount of galactitol in red blood cells (ng/g hemoglobin)” value (from here on “Amount of galactitol in red blood cells”) in data set [4] came out at 94 ± 7 ng/g hemoglobin. Further, the entries for the “Lowering percentage (%)” value in data set [5] (25 mg/kg body weight orally) and in data set [5] (100 mg/kg body weight orally) were 15.2 ± 2.1 % and 30.9 ± 8.8*^1%, respectively.

On to `CC(C)(C)CC1SC(=S)N(CC(=O)O)C1=O` (stereo not drawn) [Compound No. 7, 3-Carboxymethyl-5-(2,2-dimethylpropyl)rhodanine], for which, in data set [2], the Opaqueness was 0.32 ± 0.05. In data set [3], the “Conduction velocity of nerve (m/sec)” value was 38.5 ± 4.0 m/sec. Besides, the dead mice result with male ddY mice is reported as “no dead mice were observed”. Moreover, in the data set “Acute toxicity in mice”, the LD50 at 336 h is over 2000 mg/kg. Besides, the “Amount of galactitol in red blood cells” value in data set [4] is on record as 48 ± 3 ng/g hemoglobin. Also, the “Lowering percentage (%)” value was 52.5 ± 3.4 % in data set [5] (25 mg/kg body weight orally) and 80.9 ± 5.8*^3% in data set [5] (100 mg/kg body weight orally).

`CCC(CC)CC1SC(=S)N(CC(=O)O)C1=O` (stereo not drawn) [Compound No. 10, 3-Carboxymethyl-5-(2-ethylbutyl)rhodanine] came in with an Opaqueness in data set [2] of 0.74 ± 0.12. The “Conduction velocity of nerve (m/sec)” value in data set [3] is 34.1 ± 4.3 m/sec. Besides, the dead mice entry with male ddY mice is recorded as “no dead mice were observed”. Moreover, the LD50 at 336 h in the data set “Acute toxicity in mice” was over 2000 mg/kg. Also, in data set [4], the “Amount of galactitol in red blood cells” value is given as 90 ± 10 ng/g hemoglobin. The “Lowering percentage (%)” value in data set [5] (25 mg/kg body weight orally) is 18.2 ± 2.0 %; in data set [5] (100 mg/kg body weight orally), 42.9 ± 7.6*^2%.

The values above are taken from patent publication EP0291007A1, “Rhodanine derivative, process for preparing the same and pharmaceutical composition containing the same” (KAKEN PHARMACEUTICAL CO., LTD., priority 1987, dated 1988).
